Counter-ions that a name gives are not always drawn.
System: alpha 1a receptors versus alpha 1b and alpha 1d receptors
Experiment: Selective Binding Assays: binding to alpha 1a versus alpha 1b and alpha 1d receptors ([125I]-HEAT competition binding)
Set-up: species or system human
Settings: alpha 1a versus both alpha 1b and alpha 1d; at least about
Description: Membranes prepared from the stably transfected human alpha 1a cell line (ATCC CRL 11140) were used to identify compounds that bind to the human alpha 1a adrenergic receptor. These competition binding reactions (total volume=200 μl) contained 50 mM Tris-HCl pH. 7.4, 5 mM EDTA, 150 mM NaCl, 100 pM [^125 I]-HEAT, membranes prepared from the alpha 1a cell line and increasing amounts of unlabeled ligand. Reactions were incubated at room temperature for one hour with shaking. Reactions were filtered onto Whatman GF/C glass fiber filters with a Inotec 96 well cell harvester. Filters were washed three times with ice cold buffer and bound radioactivity was determined (Ki).
Membranes prepared from stably transfected human alpha 1d and alpha 1b cell lines (ATCC CRL 11138 and CRL 11139, respectively) were used to identify compounds that selectively bind to the human alpha 1a adrenergic receptor. These competition binding reactions (total volume=200 μl) contained 50 mM Tris-HCl pH. 7.4, 5 mM EDTA, 150 mM NaCl, 100 pM [^125 I]-HEAT, membranes prepared from cell lines transfected with the respective alpha 1 subtype expression plasmid and increasing amounts of unlabeled ligand. Reactions were incubated at room temperature for one hour with shaking. Reactions were filtered onto Whatman GF/C glass fiber filters with a Inotec 96 well cell harvester. Filters were washed three times with ice cold buffer and bound radioactivity was determined (Ki).

Row | SMILES | fold more selective in binding to alpha 1a receptors versus binding to the alpha 1b and alpha 1d receptors
1 | N#CC1(c2ccc(F)cc2)CCN(CCCNC(=O)N2C(=O)CCCC2c2ccc(F)c(F)c2)CC1 (single isomer, unassigned) [Example 6 (Enantiomer A), Hydrochloride] | at least 10 fold
2 | CC1(C)CN(Cc2ccccc2)C(=O)N(C(=O)NCCCN2CCC(c3ccc(F)cc3)CC2)C1c1ccc(F)c(F)c1 [Example 19, (4R)- and (4S)-4-(3,4-Difluorophenyl)-5,5-dimethyl-1-benzyl-3-[(4'-(4-fluorophenyl)piperidin-1'-yl)propyl]aminocarbonyltetrahydropyrimidin-2-one Hydrochloride] | at least 10 fold
3 | CC1(C)CNC(=O)N(C(=O)NCCCN2CCC(c3ccc(F)cc3)CC2)C1c1ccc(F)c(F)c1 (single isomer, unassigned) [Example 18 (Step 3, Enantiomer A), Hydrochloride] | at least 10 fold
4 | O=C(NCCCN1CCC(c2ccc(F)cc2)CC1)N1C(=O)NC[C@H](C2CC2)[C@@H]1c1ccc(F)c(F)c1 (relative stereo) [Example 21 (Isomer D), (4R,5S)-, (4S,5S)-, (4R,5R)-, and (4S,5R)-5-Cyclopropyl-4-(3,4-difluorophenyl)-3-[(4'-(4-fluorophenyl)piperidin-1'-yl)propyl]aminocarbonyltetrahydropyrimidin-2-one Hydrochlorides] | at least 10 fold
5 | CC1CC(=O)N(C(=O)NCCCN2CCC(c3ccc(F)cc3)CC2)C(c2ccc(F)c(F)c2)C1 (single isomer, unassigned) [Example 3 (Isomer A), Hydrochloride] | at least 10 fold
6 | CC1(C)CC(=O)N(C(=O)NCCCN2CCC(c3ccc(F)cc3)CC2)C(c2ccc(F)c(F)c2)C1.Cl (single isomer, unassigned) [Example 2 (Enantiomer A)] | at least 10 fold
7 | N#Cc1cc(F)ccc1C1CCN(CCCNC(=O)N2C(=O)CCCC2c2ccc(F)c(F)c2)CC1 (single isomer, unassigned) [Example 9, hydrochloride] | at least 10 fold
8 | O=C1CCCC(c2ccc(F)c(F)c2)N1C(=O)NCCCN1CCC(c2ccc(F)cc2)CC1 (racemic) [Example 4, (6RS)-, 6(R)-, and 6(S)-1-[3-[4-(4-Fluorophenyl)piperidin-1-yl]-propylaminocarbonyl]-6-(3,4-difluorophenyl)piperidin-2-one Hydrochloride] | at least 10 fold
9 | O=C1CCCC(c2ccc(F)c(F)c2)N1C(=O)NCCCN1CCC2(CCc3ccccc32)CC1 (single isomer, unassigned) [Example 7 (Enantiomer A), Hydrochloride] | at least 10 fold
10 | O=C(NCCCN1CCC(c2ccc(F)cc2)CC1)N1C(=O)NC[C@@H](C2CC2)[C@@H]1c1ccc(F)c(F)c1 (relative stereo) [Example 21 (Isomer A), (4R,5S)-, (4S,5S)-, (4R,5R)-, and (4S,5R)-5-Cyclopropyl-4-(3,4-difluorophenyl)-3-[(4'-(4-fluorophenyl)piperidin-1'-yl)propyl]aminocarbonyltetrahydropyrimidin-2-one Hydrochlorides] | at least 10 fold
11 | CC1(C)CNC(=O)N(C(=O)NCCCN2CCC(c3ccc(F)cc3)CC2)C1c1ccc(F)c(F)c1 (single isomer, unassigned) [Example 18 (Step 3, Enantiomer B), Hydrochloride] | at least 10 fold
12 | O=C(NCCCN1CCC(c2ccc(F)cc2)CC1)N1C(=O)NC[C@@H](C2CC2)[C@@H]1c1ccc(F)c(F)c1 (relative stereo) [Example 21 (Isomer C), (4R,5S)-, (4S,5S)-, (4R,5R)-, and (4S,5R)-5-Cyclopropyl-4-(3,4-difluorophenyl)-3-[(4'-(4-fluorophenyl)piperidin-1'-yl)propyl]aminocarbonyltetrahydropyrimidin-2-one Hydrochlorides] | at least 10 fold
13 | CC1CNC(=O)N(C(=O)NCCCN2CCC(c3ccc(F)cc3)CC2)C1c1ccc(F)c(F)c1 (single isomer, unassigned) [Example 22 (Isomer C), Hydrochloride] | at least 10 fold
14 | C[C@H](c1ccccc1)N1CCC(c2ccc(F)c(F)c2)N(C(=O)NCCCN2CCC(c3ccc(F)cc3)CC2)C1=O (single isomer, unassigned) [Example 14 (Step 8, Diastereomer A), Hydrochloride] | at least 10 fold
15 | O=C(NCCCN1CCC(c2ccc(F)cc2)CC1)N1C(=O)NCCC1c1ccc(F)c(F)c1 (single isomer, unassigned) [Example 14 (Step 9, Enantiomer A), Hydrochloride] | at least 10 fold
16 | CC1(C)CCC(c2ccc(F)c(F)c2)N(C(=O)NCCCN2CCC(c3ccc(F)cc3)CC2)C1=O.Cl (single isomer, unassigned) [Example 1] | at least 10 fold
17 | N#Cc1ccccc1C1(C#N)CCN(CCCNC(=O)N2C(=O)CCCC2c2ccc(F)c(F)c2)CC1 (racemic) [Example 5, (6RS)-, 6(R)- and 6(S)-1-[3-[4-(2-Cyanophenyl)-4-cyanopiperidin-1-yl]-propylaminocarbonyl]-6-(3,4-difluorophenyl)piperidin-2-one Hydrochloride] | at least 10 fold
18 | CC1CNC(=O)N(C(=O)NCCCN2CCC(c3ccc(F)cc3)CC2)C1c1ccc(F)c(F)c1 (single isomer, unassigned) [Example 22 (Isomer B), Hydrochloride] | at least 10 fold
19 | CN1CCC(c2ccc(F)c(F)c2)N(C(=O)NCCCN2CCC(c3ccc(F)cc3)CC2)C1=O (stereo not drawn) [Example 17, 4-(3,4-Difluorophenyl)-1-methyl-3-[(4'-(4-fluorophenyl)piperidin-1'-yl)propyl]aaminocarbonyltetrahydropyrimidin-2-one Hydrochloride] | at least 10 fold
20 | O=C(NCCCN1CCC(c2ccc(F)cc2)CC1)N1C(=O)NCC2(CCCCC2)C1c1ccc(F)c(F)c1 (single isomer, unassigned) [Example 20 (Isomer B), (4'R)- and (4'S)-Spirocyclohexane-[1,5']-{4-(3,4-difluorophenyl)-3-[(4'-(4-fluorophenyl)piperidin-1'-yl)propyl]aminocarbonyl}tetrahydropyrimidin-2-one Hydrochloride] | at least 10 fold
21 | C[C@H](c1ccccc1)N1CC(C)(C)C(c2ccc(F)c(F)c2)N(C(=O)NCCCN2CCC(c3ccc(F)cc3)CC2)C1=O (single isomer, unassigned) [Example 18 (Step 2, Diastereomer A)] | at least 10 fold

From US6326372A, “Lactam and cyclic urea derivatives useful as alpha 1a adrenoceptor antagonists” (Merck & Co., Inc., priority 2000, dated 2001)
